Assays:
[1] = tested on: Brevundimonas sp. ARS4 (derivative of Brevundimonas sp. OS24R harbouring the plasmid pARS1); assay: MIC for As(III); assay type: cell-based; details: derivative with pARS1; LB medium, 48 h, 30° C.
Protocol: (§1) FIG. 8. […] In order to compare the MICs for As(III), cultures were carried out in LB medium, with various concentrations of sodium arsenite (up to 20 mM). After 48 h of cultivation at 30° C., optical density of the cultures (OD600nm measurements of absorbance at 600 nm) was monitored.
(§2) In all the conjugations, transconjugants harbouring the plasmid pARS1 were obtained. To confirm that the newly constructed strains, harbouring the plasmid pARS1, have an increased resistance to arsenic, analysis of MIC—minimal concentration of As(III), inhibiting the growth of the following strains: Agrobacterium tumefaciens ARS3 (derivative of A. tumefaciens LBA288 harbouring the plasmid pARS1), Brevundimonas sp. ARS4 (derivative of Brevundimonas sp. sp. OS24R harbouring the plasmid pARS1), P. aminophilus ARS5 (derivative of P. aminophilus JCM7686 harbouring the plasmid pARS1) was carried out. Wild-type strains were used as the control. Growth experiment and MIC analysis for As(III) was carried out in LB medium, with various concentrations of sodium arsenite (up to 20 mM). After 48 h of cultivation at 30° C., optical density of cultures at OD600nm was monitored. […] MIC for As(III) for A. tumefaciens LBA288 strain was 1 mM, while for its derivative, comprising the plasmid pARS1, 20 mM; for P. aminophilus JCM7686R strain 5 mM, while for its derivative, containing the plasmid pARS1, 20 mM. In turn Brevundimonas sp. OS24R could tolerate the maximum of 10 mM of As(III), and its derivative harbouring the plasmid pARS1 was resistant to 20 mM of As(III). The conducted analyses allowed to confirm that the derivative of the plasmid pSinA, comprising the ars module (sequence from 43229 to 50772) can be used for constructing strains with increased resistance to arsenic.

[2] = tested on: P. aminophilus ARS5 (derivative of P. aminophilus JCM7686 harbouring the plasmid pARS1); assay: MIC for As(III); assay type: cell-based; details: Paracoccus aminophilus, derivative with pARS1, LB medium, 48 h, 30° C.
Protocol: as §1, §2

[3] = tested on: Agrobacterium tumefaciens ARS3 (derivative of A. tumefaciens LBA288 harbouring the plasmid pARS1); assay: MIC for As(III); assay type: cell-based; details: derivative with pARS1, LB medium, 48 h, 30° C.
Protocol: as §1, §2

[4] = tested on: Sinorhizobium sp. M14; assay: Resistance to As(III); assay type: cell-based
[5] = tested on: Paracoccus alcaliphilus JCM7364R; assay: Sodium arsenite growth inhibition; assay type: cell-based; details: P. alcaliphilus JCM7364R
[6] = tested on: Paracoccus aminovorans JCM7685; assay: Sodium arsenite growth inhibition; assay type: cell-based; details: P. aminovorans JCM7685
[7] = tested on: A. tumefaciens D10; assay: Resistance to As(III); assay type: cell-based, Agrobacterium tumefaciens; details: A. tumefaciens D10 with pSinA
[8] = tested on: Pseudomonas sp. OS29R; assay: Resistance to As(III); assay type: cell-based; details: in words
[9] = tested on: Agrobacterium tumefaciens LBA288; assay: As(III) (sodium arsenite) growth inhibition / MIC; assay type: cell-based
Protocol: as §1, §2

[10] = tested on: Paracoccus aminophilus JCM7686; assay: As(III) (sodium arsenite) growth inhibition / MIC; assay type: cell-based
Protocol: as §1, §2

[11] = tested on: Brevundimonas sp. OS24R; assay: As(III) (sodium arsenite) growth inhibition / MIC; assay type: cell-based
Protocol: as §1, §2

[12] = tested on: Stenotrophomonas sp. LM24R; assay: Sodium arsenite growth inhibition; assay type: cell-based

**Q.** How did the “As(III) concentration the strain is resistant to” value [1] turn out when `O=[As]O` [sodium arsenite] was run?
**A.** 20 mM

**Q.** And the MIC [2]?
**A.** 20 mM

**Q.** What about the MIC [3] of the same molecule?
**A.** 20 mM

**Q.** What about the “resistant to As (III) (up to)” value [4] of the same molecule?
**A.** up to 20 mM

**Q.** And the “concentration of sodium arsenite that inhibits growth” value [5]?
**A.** 1 mM

**Q.** What about the “concentration of sodium arsenite that inhibits growth” value [6] of the same molecule?
**A.** 1 mM

**Q.** What about the “resistant to As (III) (up to)” value [7] of the same molecule?
**A.** up to 15 mM

**Q.** And the “resistance to As (III)” value [8]?
**A.** resistant

**Q.** What about the “concentration of sodium arsenite that inhibits growth” value ([9]; A. tumefaciens LBA288) of the same molecule?
**A.** 1 mM

**Q.** What about the MIC ([9]; Agrobacterium tumefaciens, LBA288, LB medium, 48 h, 30° C., OD600nm) of the same molecule?
**A.** 1 mM

**Q.** What about the “concentration of sodium arsenite that inhibits growth” value ([10]; P. aminophilus JCM7686) of the same molecule?
**A.** 5 mM

**Q.** And the MIC ([10]; Paracoccus aminophilus, JCM7686, 48 h, read-out: MIC for As(III))?
**A.** 5 mM

**Q.** What about the “concentration of sodium arsenite that inhibits growth” value ([11]; Brevundimonas sp. OS24R) of the same molecule?
**A.** 10 mM

**Q.** What about the “resistance to As (III)” value ([11]; Brevundimonas sp. OS24R, in words) of the same molecule?
**A.** resistant

**Q.** What about the “maximum of As(III) tolerated” value ([11]; LB medium, 48 h, 30° C., OD600nm) of the same molecule?
**A.** ≤ 10 mM

**Q.** And the “concentration of sodium arsenite that inhibits growth” value [12]?
**A.** 1 mM

From patent US9243255B2, “Bacterial strains, plasmids, method of producing bacterial strains capable of chemolithotrophic arsenites oxidation and uses thereof” (UNIWERSYTET WARSZAWSKI, priority 2012, dated 2016)
